Twelve molecules from PubChem BioAssay AID330 (DTP/NCI, 2004) can be followed below.

“And” between values parts separate entries of the source, which are not always exact repeats. Equal entries are not always repeated. Inconclusive results and toxic doses are left out. Square brackets hold non-standard residues; d marks the D form. Peptide text beside a SMILES is read from it. Ac5c = NC1(C(=O)O)CCCC1; Sar = CNCC(=O)O

The test system of this assay is P388 leukemia ip, CD2F1 mice, survival T/C. In words: NCI In Vivo Anticancer Drug Screen. Data for tumor model P388 Leukemia (intraperitoneal) in CD2F1 (CDF1) mice. Particulars: endpoint: median survival time, higher = longer survival. An outline of the steps: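 Mice carrying the transplanted tumor received test compound or vehicle. Survival was recorded in each group, and the value is the treated-group measurement divided by that of the vehicle-treated control group.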

Setting [1] is: dose: 50.0 mg/kg/injection, schedule: Q01DX009 (ip), vehicle: saline.
Where [2] appears, read: dose: 100.0 mg/kg/injection, schedule: Q01DX009 (ip), vehicle: saline.
The mark [3] stands for this setting: dose: 100.0 mg/kg/injection, schedule: Q04DX003 (ip), vehicle: saline with Tween-80.
[4] abbreviates: dose: 200.0 mg/kg/injection, schedule: Q04DX003 (ip), vehicle: saline with Tween-80.

Regarding `CC1(C)N=C(N)N=C(N)N1c1ccc(CCCCc2ccc(Cl)c(S(=O)(=O)F)c2)c(Cl)c1`, the T/C by setting is: (dose: 2.0 mg/kg/injection, schedule: Q01DX009 (ip), vehicle: saline with Tween-80) 154 % of control; (dose: 8.0 mg/kg/injection, schedule: Q01DX009 (ip), vehicle: saline with Tween-80) 154 % of control; (dose: 8.0 mg/kg/injection, schedule: Q01DX009 (ip), vehicle: saline) 172 % of control and 175 % of control; (dose: 12.0 mg/kg/injection, schedule: Q01DX009 (ip), vehicle: saline) 180 % of control and 181 % of control; (dose: 18.0 mg/kg/injection, schedule: Q01DX009 (ip), vehicle: saline) 163 % of control and 172 % of control and 180 % of control; (dose: 27.0 mg/kg/injection, schedule: Q01DX009 (ip), vehicle: saline) 154 % of control and 172 % of control.
For `CNCC(=O)NC1(C(=O)O)CCCC1` (H-[Sar]-[Ac5c]-OH), the T/C reads like this: under setting [1], 100 % of control; under setting [2], 94 % of control; (dose: 200.0 mg/kg/injection, schedule: Q01DX009 (ip), vehicle: saline) 109 % of control.
Take `CCCCNC(=O)OCc1c(COC(=O)NCCCC)c(-c2ccc(Cl)c(Cl)c2)n2c1CCC2`: the T/C is, setting by setting: (dose: 25.0 mg/kg/injection, schedule: Q01DX009 (ip), vehicle: saline with Tween-80) 153 % of control and 159 % of control; (dose: 50.0 mg/kg/injection, schedule: Q01DX009 (ip), vehicle: saline with Tween-80) 150 % of control and 171 % of control; (dose: 200.0 mg/kg/injection, schedule: Q01DX009 (ip), vehicle: saline with Tween-80) 163 % of control.
Regarding `N=c1nccnn1O`, the T/C under setting [3] was 100 % of control; the T/C under setting [4] was 99 % of control; the T/C (dose: 400.0 mg/kg/injection, schedule: Q04DX003 (ip), vehicle: saline with Tween-80) was 100 % of control.
`Cn1c(=O)c2c(nc(/N=C/c3ccc([N+](=O)[O-])cc3)n2C)n(C)c1=O`: the T/C (dose: 100.0 mg/kg/injection, schedule: Q04DX003 (ip), vehicle: saline) was 100 % of control; the T/C (dose: 200.0 mg/kg/injection, schedule: Q04DX003 (ip), vehicle: saline) is 86 % of control; the T/C (dose: 400.0 mg/kg/injection, schedule: Q04DX003 (ip), vehicle: saline) was 93 % of control.
With `c1ccc2sc(SNC3CCCCC3)nc2c1`, the T/C was 103 % of control (dose: 25.0 mg/kg/injection, schedule: Q01DX009 (ip), vehicle: Klucel (hydroxypropylcellulose) (HPC)); 94 % of control (dose: 25.0 mg/kg/injection, schedule: Q04DX002 (ip), vehicle: Klucel (hydroxypropylcellulose) (HPC)); 104 % of control (dose: 50.0 mg/kg/injection, schedule: Q01DX009 (ip), vehicle: Klucel (hydroxypropylcellulose) (HPC)); 95 % of control (dose: 50.0 mg/kg/injection, schedule: Q04DX002 (ip), vehicle: Klucel (hydroxypropylcellulose) (HPC)); 100 % of control (dose: 100.0 mg/kg/injection, schedule: Q01DX009 (ip), vehicle: Klucel (hydroxypropylcellulose) (HPC)); 94 % of control (dose: 100.0 mg/kg/injection, schedule: Q04DX002 (ip), vehicle: Klucel (hydroxypropylcellulose) (HPC)). Also, the T/C (dose: 100.0 mg/kg/injection, schedule: Q04DX002 (ip), vehicle: saline) was 101 % of control; the T/C (dose: 200.0 mg/kg/injection, schedule: Q01DX009 (ip), vehicle: Klucel (hydroxypropylcellulose) (HPC)) is 101 % of control; the T/C (dose: 200.0 mg/kg/injection, schedule: Q04DX002 (ip), vehicle: saline) was 109 % of control; the T/C (dose: 400.0 mg/kg/injection, schedule: Q04DX002 (ip), vehicle: saline) was 113 % of control.
Turning to `CCOc1ccccc1N=Nc1c(C)nn(C(N)=S)c1OCC`, the T/C was 106 % of control (dose: 60.0 mg/kg/injection, schedule: Q01DX005 (ip), vehicle: Klucel (hydroxypropylcellulose) (HPC)); 116 % of control (dose: 120.0 mg/kg/injection, schedule: Q01DX005 (ip), vehicle: Klucel (hydroxypropylcellulose) (HPC)); 115 % of control (dose: 240.0 mg/kg/injection, schedule: Q01DX005 (ip), vehicle: Klucel (hydroxypropylcellulose) (HPC)).
For `C=CCOC(=O)CCCC1=NC2=CC=CC3=NC(C)=NC(=N1)N23`, the T/C was 105 % of control (dose: 50.0 mg/kg/injection, schedule: Q04DX003 (ip), vehicle: saline with Tween-80); 99 % of control under setting [3]; 91 % of control under setting [4].
Regarding `COc1c2c(cc3c1-c1ccc(OC)c(=O)cc1C(NC(C)=O)CC3)OCO2` (stereo unspecified), the T/C (dose: 0.47 mg/kg/injection, schedule: Q01DX009 (ip), vehicle: distilled water + Tween-80) is 157 % of control; the T/C (dose: 0.94 mg/kg/injection, schedule: Q01DX009 (ip), vehicle: distilled water + Tween-80) is 166 % of control; the T/C (dose: 3.75 mg/kg/injection, schedule: Q01DX009 (ip), vehicle: distilled water + Tween-80) is 155 % of control; the T/C (dose: 7.5 mg/kg/injection, schedule: Q01DX009 (ip), vehicle: distilled water + Tween-80) was 161 % of control.
For `O=C(CC1=NC2NN(c3ccccc3)C(=O)C2=C1CC(=O)c1ccc(F)cc1)c1ccc(F)cc1` (stereo unspecified), the T/C (dose: 60.0 mg/kg/injection, schedule: Q01DX005 (ip), vehicle: saline with Tween-80) is 98 % of control; the T/C (dose: 120.0 mg/kg/injection, schedule: Q01DX005 (ip), vehicle: saline with Tween-80) was 97 % of control; the T/C (dose: 240.0 mg/kg/injection, schedule: Q01DX005 (ip), vehicle: saline with Tween-80) was 97 % of control.
Turning to `O=C(CCCCCCCC(=O)Nc1ccc2[nH]c3ccccc3c(=O)c2c1)Nc1ccc2[nH]c3ccccc3c(=O)c2c1`, the T/C is, setting by setting: (dose: 50.0 mg/kg/injection, schedule: Q01DX005 (ip), vehicle: saline with Tween-80) 107 % of control; (dose: 100.0 mg/kg/injection, schedule: Q01DX005 (ip), vehicle: saline with Tween-80) 107 % of control; (dose: 200.0 mg/kg/injection, schedule: Q01DX005 (ip), vehicle: saline with Tween-80) 106 % of control.
On to `CN(C)CCC(=O)c1ccc(Cl)cc1`, for which the T/C was 106 % of control under setting [1] and 105 % of control under setting [2].
